Test results from PubChem BioAssay AID1963856 (Molecular Pharmacology Branch, DTP, NCI, 2024).

Tested on: LG0567-F671-PDC KRAS tumor spheroid viability
Assay: Anticancer human tumor LG0567-F671-PDC patient-derived lung adenocarcinoma cell line growth inhibition [KRAS2]
Conditions: spheroids with HUVEC and MSC; for viability, T/C: stronger effect = lower value
Summary of the method: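 Combination screen of spheroid viability in tumor-cell co-cultures with endothelial (HUVEC) and mesenchymal stem cell stroma. Each agent was tested in half-log dilutions, topping at clinical Cmax or at 10 microM without a known Cmax.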

[1] = curve of first compound, second compound 0.0316 µM
[2] = curve of first compound, second compound 0.1 µM
[3] = curve of first compound, second compound 0.316 µM
[4] = curve of first compound, second compound 1 µM
[5] = curve of first compound, second compound 3.16 µM
[6] = second compound 0.0316 µM, first compound 0.0316 µM
[7] = second compound 0.0316 µM, first compound 0.1 µM
[8] = second compound 0.0316 µM, first compound 0.316 µM
[9] = second compound 0.0316 µM, first compound 1 µM
[10] = second compound 0.0316 µM, first compound 3.16 µM
[11] = second compound 0.0316 µM, first compound 10 µM
[12] = second compound 0.1 µM, first compound 0.0316 µM
[13] = second compound 0.1 µM, first compound 0.1 µM
[14] = second compound 0.1 µM, first compound 0.316 µM
[15] = second compound 0.1 µM, first compound 1 µM
[16] = second compound 0.1 µM, first compound 3.16 µM
[17] = second compound 0.1 µM, first compound 10 µM
[18] = second compound 0.316 µM, first compound 0.0316 µM
[19] = second compound 0.316 µM, first compound 0.1 µM
[20] = second compound 0.316 µM, first compound 0.316 µM
[21] = second compound 0.316 µM, first compound 1 µM
[22] = second compound 0.316 µM, first compound 3.16 µM
[23] = second compound 0.316 µM, first compound 10 µM
[24] = second compound 1 µM, first compound 0.0316 µM
[25] = second compound 1 µM, first compound 0.1 µM
[26] = second compound 1 µM, first compound 0.316 µM
[27] = second compound 1 µM, first compound 1 µM
[28] = second compound 1 µM, first compound 3.16 µM
[29] = second compound 1 µM, first compound 10 µM
[30] = second compound 3.16 µM, first compound 0.0316 µM
[31] = second compound 3.16 µM, first compound 0.1 µM
[32] = second compound 3.16 µM, first compound 0.316 µM
[33] = second compound 3.16 µM, first compound 1 µM
[34] = second compound 3.16 µM, first compound 3.16 µM
[35] = second compound 3.16 µM, first compound 10 µM
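Further: drug exposure lasted seven days after spheroids formed for three days.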
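Wherever viability, T/C is given: 100% = DMSO vehicle control viability.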

| Compound | IC50 [2] [nM] | IC50 [3] [nM] | IC50 [4] [nM] | IC50 [5] [nM] | viability, T/C [12] [%] | viability, T/C [13] [%] | viability, T/C [14] [%] | viability, T/C [15] [%] | viability, T/C [16] [%] | viability, T/C [18] [%] | viability, T/C [19] [%] | viability, T/C [20] [%] | viability, T/C [21] [%] | viability, T/C [22] [%] | viability, T/C [24] [%] | viability, T/C [25] [%] | viability, T/C [26] [%] | viability, T/C [27] [%] | viability, T/C [28] [%] | viability, T/C [30] [%] | other results |
| --- | --- | --- | --- | --- | --- | --- | --- | --- | --- | --- | --- | --- | --- | --- | --- | --- | --- | --- | --- | --- | --- |
| COc1cc(Nc2ncc3c(n2)-c2ccc(Cl)cc2C(c2c(F)cccc2OC)=NC3)ccc1C(=O)O + C=CC(=O)N1CCN(c2nc(OCC3CCCN3C)nc3c2CCN(c2cccc4cccc(C)c24)C3)CC1CC#N | < 31.6 | < 31.6 | < 31.6 | < 31.6 | 25.7 | 22.9 | 17.6 | 19.2 | 21.8 | 29.2 | 22.6 | 20.3 | 19.7 | 23.3 | 27.8 | 26.4 | 24.6 | 25.4 | 26.7 | 28.7 | IC50 [1]: < 31.6 nM; viability, T/C [6]: 32.8%; viability, T/C [7]: 20.1%; viability, T/C [8]: 20.5%; viability, T/C [9]: 20.2%; viability, T/C [10]: 18.7%; viability, T/C [11]: 16.3%; viability, T/C [17]: 15%; viability, T/C [23]: 16.9%; viability, T/C [29]: 22.9%; viability, T/C [31]: 30.4%; viability, T/C [32]: 30.3%; viability, T/C [33]: 23.7%; viability, T/C [34]: 17%; viability, T/C [35]: 1.09% |
| CNCc1ccccc1-c1csc(C(C)Nc2nc(C)nc3cc(OC)c(OC)cc23)c1 (stereo not drawn) | – | – | – | – | – | – | – | – | – | – | – | – | – | – | – | – | – | – | – | – | viability, T/C (compound 10 µM): 0.63% [middle of 16 runs]; IC50 (compound alone, run of 07/19/2021): 1.25 µM [middle of 5 runs]; IC50 (compound alone, run of 07/26/2021): 4.92 µM [middle of 6 runs] |
| CC(=O)OC12COC1CC(O)C1(C)C(=O)C(O)C3=C(C)C(OC(=O)C(O)C(NC(=O)OC(C)(C)C)c4ccccc4)CC(O)(C(OC(=O)c4ccccc4)C21)C3(C)C (stereo not drawn) + COc1cc2nc(C)nc(NC(C)c3cc(N)cc(C(F)(F)F)c3)c2cc1OC1CCOC1 | > 3160 | < 10 | > 3160 | < 10 | 52.6 | 53.9 | 57.9 | 72.3 | 58.7 | 40 | 52.4 | 45.4 | 51 | 47.6 | 69.2 | 69.7 | 70.5 | 78.8 | 50.3 | 46.9 | IC50 (curve of first compound, second compound 10 µM): > 3160 nM; viability, T/C (second compound 0.1 µM, first compound 0.01 µM): 55.8%; viability, T/C (second compound 0.316 µM, first compound 0.01 µM): 48.6%; viability, T/C (second compound 1 µM, first compound 0.01 µM): 54.9%; viability, T/C (second compound 3.16 µM, first compound 0.01 µM): 50.5%; viability, T/C [31]: 56.3%; viability, T/C [32]: 48.9%; viability, T/C [33]: 57.1%; viability, T/C [34]: 59.1%; viability, T/C (second compound 10 µM, first compound 0.01 µM): 62.7%; viability, T/C (second compound 10 µM, first compound 0.0316 µM): 58.1%; viability, T/C (second compound 10 µM, first compound 0.1 µM): 53.8%; viability, T/C (second compound 10 µM, first compound 0.316 µM): 54.6%; viability, T/C (second compound 10 µM, first compound 1 µM): 64.4%; viability, T/C (second compound 10 µM, first compound 3.16 µM): 62.2% |
| CCNC(=O)CC1N=C(c2ccc(Cl)cc2)c2cc(OC)ccc2-n2c(C)nnc21 (stereo not drawn) + C=CC(=O)N1CCN(c2nc(OCC3CCCN3C)nc3c2CCN(c2cccc4cccc(C)c24)C3)CC1CC#N | < 31.6 | 2000 | < 31.6 | < 31.6 | 46.5 | 41.5 | 25.6 | 19.4 | 15.3 | 99.2 | 109 | 72.8 | 60.9 | 46.8 | 35.7 | 32.3 | 24.6 | 17.5 | 14.6 | 41.3 | IC50 [1]: 51.2 nM; viability, T/C [6]: 48.4%; viability, T/C [7]: 52.5%; viability, T/C [8]: 36.7%; viability, T/C [9]: 25.7%; viability, T/C [10]: 17.2%; viability, T/C [11]: 16.6%; viability, T/C [17]: 12.9%; viability, T/C [23]: 40.2%; viability, T/C [29]: 12.8%; viability, T/C [31]: 32.7%; viability, T/C [32]: 22.6%; viability, T/C [33]: 13.3%; viability, T/C [34]: 9.07%; viability, T/C [35]: 7.07% |
